Assay results as given in patent publication US4735947A, “Methyllevallorphanium salts having peripheral opiate antagonistic activity” (Sanofi, priority 1983, dated 1988).
Counter-ions that a name gives are not always drawn.

How the values were obtained:
[1] = tested on: analgesic effect of morphine; assay: antagonism to the analgesic effect of morphine, hot-plate analgesia test (P. A. Janssen et al.); format: in vivo, mice; details: for ED50 / Antagonism to the analgesic effect ID50a: female mice, antagonist s.c. 5 min before morphine 24 mg/kg s.c.; for ED50: read-out: Antagonism to the analgesic effect ID50a
Method: (§1) The antagonism to the peripheral action of opiates is assessed on the basis of the percent inhibition of the analgesic and of the constipating effects of morphine. The ratio between the dose which inhibits by 50% the analgesic effect of morphine and the dose which inhibits by 50% its constipating effect represents the index of the peripheral activity.
(§2) The antagonism to the analgesic effect of morphine was assessed by the hot-plate analgesia test according to P. A. Janssen et al. (J. Pharm. Pharmacol. 1957, 9, 381-400) by using fasting (18 hours) female mice of 20-22 g. Morphine was injected subcutaneously (24 mg/kg) thirty minutes before the beginning of the test. The antagonist was injected subcutaneously 5 minutes before the morphine. The antagonistic activity was expressed as ID50 of the morphine antinociceptive effect, calculated on the basis of the log dose reaction time regression of the animals treated with different doses of the products under testing.
(§3) The doses which inhibit by 50% the analgesic effect (ID50a) and the constipating effect (ID50c) have been extrapolated from least square log dose-response line by applying the analysis of the variance by linear regression.

[2] = tested on: analgesic and constipating effects of morphine; assay: index of peripheral activity (hot-plate analgesia test versus charcoal meal constipation test); format: in vivo, mice; details: for ID50a/ID50c: index of the peripheral activity; for peripheral selectivity (analgesic versus constipating effect), in words: conditions of Table I
Method: as §1, §2
(§4) The antagonism to the morphine constipating effect of the methyl levallorphanium salts of the present invention was assessed according to the test described by A. F. Green (Br. J. Pharm. Chemother. 1959, 14, 26-34), slightly modified.
(§5) Three groups of fasting (20 hours) female mice of about 20 g were used. To a control group, a meal consisting of 0.2 ml of a mixture of 5% arabic gum (6 ml), flour (2 g) and charcoal (1 g) was administered by oral route. The second group was treated with 12 mg/kg of morphine s.c. and, immediately afterwards, with the above charcoal meal. […] After 30 minutes, the animals were sacrificed to assess the portion of intestine through which the charcoal had passed, expressed as percent of the total length of the small intestine.
as §3

[3] = tested on: constipating effect of morphine; assay: antagonism to the morphine constipating effect, charcoal meal test (A. F. Green, slightly modified); format: in vivo, mice; details: for ED50: Mus musculus, sc, read-out: Antagonism to the constipating effect ID50c; for ED50 / Antagonism to the constipating effect ID50c: charcoal meal, female mice, antagonist s.c. 5 min before morphine 12 mg/kg s.c.
Method: as §1, §4, §5, §3

opiate = details: reported in earlier literature or filings; cited from earlier work

Structure (SMILES) | inhibition at 30 mg/kg ([1]; Mus musculus, sc, at 30 mg/kg s.c., mice, read-out: inhib. of the analgesic effect of morphine) | inhibition at 60 mg/kg ([1]; Mus musculus, sc, at 60 mg/kg s.c., mice, read-out: inhib. of the analgesic effect of morphine) | ED50 ([1]; Mus musculus, sc) | ID50a/ID50c [2] | ED50 [3] | peripheral selectivity (analgesic versus constipating effect), in words [2] | peripheral opiate antagonism, in words ([3]; conditions of Table I) | peripheral antagonistic activity / opiate antagonistic activity (opiate) | Antagonism to the analgesic effect ID50a [1] | Antagonism to the constipating effect ID50c [3]
C=CC[N+]1(C)CC[C@]23CCCC[C@H]2[C@H]1Cc1ccc(O)cc13 (single isomer, unassigned) [methyllevallorphanium methylsulfate] | 41% | 49% | ~60 mg/kg | ~ 12 | 4.9 mg/kg | – | – | – | – | –
C=CCN1CC[C@]23c4c5ccc(O)c4O[C@H]2C(=O)CC[C@@]3(O)[C@H]1C5 [naloxone, N-allylnoroxymorphone] | – | – | 0.06 mg/kg | 0.08 | 0.75 mg/kg | more active as antagonists of the analgesic effect than as antagonists of the constipating effect | – | – | – | –
C=CC[N+]1(CC=C)CC[C@]23CCCC[C@H]2[C@H]1Cc1ccc(O)cc13 [levallorphan bromoallylate] | – | – | – | 0.97 | 15.7 mg/kg | the ratio between its ID50a and ID50c is by far lower than that of the compounds of the present invention | good opiate peripheral antagonist | peripheral narcotic antagonist | – | –
C=CC[N+]1(C)CC[C@]23c4c5ccc(O)c4O[C@H]2C(=O)CC[C@@]3(O)[C@H]1C5.COS(=O)(=O)[O-] (stereo partly drawn) [naloxone sulfomethylate] | – | – | – | 0.27 | – | – | – | – | 1.6 mg/kg | 5.8 mg/kg
C=CCN1CC[C@]23CCCC[C@H]2[C@H]1Cc1ccc(O)cc13 [levallorphan tartrate] | – | – | 0.03 mg/kg | 0.01 | 5.5 mg/kg | more active as antagonists of the analgesic effect than as antagonists of the constipating effect | – | – | – | –
C=CC[N+]1(C)CC[C@]23CCCC[C@H]2[C@H]1Cc1ccc(O)cc13 (single isomer, unassigned) [methyllevallorphanium mesilate] | – | – | – | > 8 | – | – | – | – | > 60 mg/kg | 7.4 mg/kg
